Experimental data taken from article PMC12165925 (Natural Products and Bioprospecting, 2025).

What was measured:
SARS-CoV-2 3CL^pro [1] = target: T1, SARS-CoV-2 3CL^pro (Severe acute respiratory syndrome coronavirus 2, UniProt P0DTD1); assay: biochemical; format: binding
[2] = design: method as in PMID 31557009; details: cited from earlier work
Vero-E6 cells = assay: Cytotoxicity, CCK-8, Vero-E6 cells; details: at 200 µM
[3] = Cytotoxicity, CCK-8, Vero-E6 cells; details: African green monkey
SARS-CoV-2 3CL^pro [4] = target: T1, SARS-CoV-2 3CL^pro; assay: biochemical
cathepsin L (CTSL) = cathepsin L (CTSL) (Homo sapiens, UniProt P07711); assay: Host protease inhibitory activity assay, CTSL; details: 50 µM, p < 0.001
Description: (§1) Similarly, CTSL (Sino Biological, Beijing, China) was diluted, activated, and incubated with the test compounds before Z-Phe-Arg-AMC was added, with fluorescence measurements taken under the same conditions. For CTRC (Novoprotein, Suzhou, China), a 5 µg/mL solution was incubated with the test compounds in Tris buffer, then activated with trypsin (Sigma, Saint Louis, USA). The reaction was initiated using 100 µM Succinyl-Ala-Ala-Pro-Phe-p-nitroanilide (NJPeptide Biotech, Nanjing, China), and absorbance was measured at 405 nm.

cathepsin B (CTSB) = cathepsin B (CTSB) (Homo sapiens, UniProt P07858); assay: Host protease inhibitory activity assay, CTSB; details: 50 µM
Description: The activities of cathepsin B (CTSB), cathepsin L (CTSL), and chymotrypsin C (CTRC) were assessed following established methods [35, 36]. […] After further dilution to 500 pM, CTSB was incubated with the test compounds for 30 min, followed by the addition of 5 µM Z-Phe-Arg-AMC (NJPeptide Biotech, Nanjing, China) to initiate the reaction. Fluorescence was recorded using a Cytation 5 reader at excitation/emission wavelengths of 360/460 nm.

SARS-CoV-2-S pseudovirus = assay: microbe, parasite or virus in culture; format: cell-based; details: for inhibition of attachment of SARS-CoV-2-S pseudovirus to ACE2-expressing HEK293T cells: 5 µM and 50 µM, p < 0.001; for IC50: Pseudovirus
S-RBD = S-RBD (Severe acute respiratory syndrome coronavirus 2, UniProt P0DTC2); assay: Surface plasmon resonance, immobilized S-RBD; format: binding, SARS-CoV-2; details: SPR; for Kd: Langmuir 1:1 binding model; for kon: read-out: ka, S-RBD
SARS-CoV-2 3CL^pro [5] = target: T1, SARS-CoV-2 3CL^pro
hACE2-HEK293T cells = assay: Cytotoxicity, CCK-8, hACE2-HEK293T cells
[6] = Cytotoxicity, CCK-8, hACE2-HEK293T cells; details: human
chymotrypsin C (CTRC) = target: T2, chymotrypsin C (CTRC) (Homo sapiens, UniProt Q99895); assay: Host protease inhibitory activity assay, CTRC; details: 50 µM, p < 0.001
T2 sequence (Q99895 30-268): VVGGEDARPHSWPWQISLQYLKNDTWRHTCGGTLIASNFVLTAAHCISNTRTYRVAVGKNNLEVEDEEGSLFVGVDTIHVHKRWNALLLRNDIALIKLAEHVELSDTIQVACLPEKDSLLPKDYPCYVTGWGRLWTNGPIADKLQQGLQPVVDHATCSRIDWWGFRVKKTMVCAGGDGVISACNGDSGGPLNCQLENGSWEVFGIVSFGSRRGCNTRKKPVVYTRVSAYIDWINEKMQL
Description: as §1

ACE2 = ACE2 (Homo sapiens, UniProt Q9BYF1); assay: Surface plasmon resonance, immobilized ACE2; format: binding; details: for kon / koff: SPR; for kon: read-out: binding rate constant (ka), ACE2; for koff: read-out: dissociation rate constant (kd), ACE2
Description: Binding affinities between compounds and ACE2 or S-RBD were evaluated using a Biacore T200 instrument (Cytiva, UK). […] A mixture of 50 mM NHS and 200 mM EDC was injected to activate the surface, after which 20 µg/mL ACE2 was immobilized to achieve 15,020 RU, and 30 µg/mL S-RBD reached 7193 RU. Surface blocking was performed using 1 M ethanolamine at pH 8.5. Delphinidin with 5% DMSO was injected into the flow system and analyzed for 120 s, followed by 300 s of dissociation. Glycine–HCl at pH 3.0 was used for surface regeneration between analyte injections. Data were processed using double reference subtraction and solvent corrections. Binding affinities were determined using a Langmuir 1:1 binding model in Biacore Evaluation software (Cytiva, UK).

HCoV-229E = assay: Anti HCoV-229E activity in BEL-7402 cells (CPE, RT-qPCR); format: cell-based
[7] = design: method as in PMID 25980422; details: cited from earlier work
BEL-7402 cells = assay: Maximum non-toxic concentration in BEL-7402 cells (CPE monitoring)

Chain of ACE2 (Q9BYF1 18-805): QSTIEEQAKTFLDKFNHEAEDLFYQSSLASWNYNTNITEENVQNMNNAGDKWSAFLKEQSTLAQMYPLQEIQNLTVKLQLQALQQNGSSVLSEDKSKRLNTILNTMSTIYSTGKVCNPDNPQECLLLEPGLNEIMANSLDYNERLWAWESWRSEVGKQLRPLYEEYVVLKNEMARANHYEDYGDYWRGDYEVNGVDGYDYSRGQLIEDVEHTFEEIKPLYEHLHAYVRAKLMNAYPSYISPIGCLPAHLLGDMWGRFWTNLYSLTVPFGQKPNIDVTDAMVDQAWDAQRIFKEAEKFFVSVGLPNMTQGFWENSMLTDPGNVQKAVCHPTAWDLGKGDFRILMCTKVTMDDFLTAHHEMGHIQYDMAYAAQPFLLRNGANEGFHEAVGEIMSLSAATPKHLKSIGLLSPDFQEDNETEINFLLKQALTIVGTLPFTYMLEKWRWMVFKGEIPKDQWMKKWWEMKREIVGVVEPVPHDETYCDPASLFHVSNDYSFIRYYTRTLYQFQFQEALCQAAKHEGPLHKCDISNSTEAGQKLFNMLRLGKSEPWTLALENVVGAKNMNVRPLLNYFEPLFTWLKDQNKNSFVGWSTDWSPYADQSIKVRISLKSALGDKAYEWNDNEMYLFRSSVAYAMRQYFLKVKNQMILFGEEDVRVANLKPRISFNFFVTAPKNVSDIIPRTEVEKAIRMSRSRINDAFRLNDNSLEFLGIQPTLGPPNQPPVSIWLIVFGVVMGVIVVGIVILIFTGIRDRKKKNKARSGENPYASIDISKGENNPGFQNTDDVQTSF
Chain of cathepsin L (CTSL) (P07711 114-333): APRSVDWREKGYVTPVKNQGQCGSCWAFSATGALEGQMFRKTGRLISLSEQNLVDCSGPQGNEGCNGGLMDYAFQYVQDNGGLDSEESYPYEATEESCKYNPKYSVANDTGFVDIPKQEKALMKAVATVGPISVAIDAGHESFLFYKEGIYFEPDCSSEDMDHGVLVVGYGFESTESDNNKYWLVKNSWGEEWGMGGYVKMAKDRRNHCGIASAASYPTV

## Oc1cc(O)c2cc(O)c(-c3cc(O)c(O)c(O)c3)[o+]c2c1 [Delphinidin]
SARS-CoV-2 3CL^pro [1]
  Kd: 24.5 µM
SARS-CoV-2 3CL^pro [1]; read-out: Ka, SARS-CoV-2 3CL^pro
  kon: 296 M⁻¹ s⁻¹
[2]
  bioavailability: low
Vero-E6 cells
  cytotoxicity on Vero-E6 cells: no toxicity
[3]
  CC50 at 24 h: > 200 µM
SARS-CoV-2 3CL^pro [4]
  Ki: 0.93 µM
SARS-CoV-2 3CL^pro [4]; IC50, SARS-CoV-2 3CL^pro
  IC50: 1.54 ± 0.38 µM
SARS-CoV-2 3CL^pro [4]; IC50, SARS-CoV-2 3CL^pro (TDI)
  IC50: 4.39 ± 0.53 µM
Cathepsin L (CTSL)
  inhibition of CTSL: strong inhibitory effect
Cathepsin B (CTSB)
  inhibition of CTSB: did not inhibit
SARS-CoV-2-S pseudovirus
  selectivity index (SI), [CC50]/[IC50]: > 4.41
  inhibition of attachment of SARS-CoV-2-S pseudovirus to ACE2-expressing HEK293T cells: significantly inhibited
  IC50: 45.4 ± 7.09 µM
S-RBD
  kd, S-RBD: 1.14 × 10^–3 s^−1
  Kd: 2.98 µM
  kon: 383 M⁻¹ s⁻¹
SARS-CoV-2 3CL^pro [5]
  IC50 shift, 3 vs 30 min pre-incubation: 2.85 times
  inhibition mechanism on SARS-CoV-2 3CL^pro: non-competitive inhibitor
hACE2-HEK293T cells; screening concentrations 5 µM and 50 µM
  cytotoxicity against hACE2-HEK293T cells: not significantly cytotoxic
[6]
  CC50: > 200 µM
Chymotrypsin C (CTRC)
  inhibition of CTRC: strong inhibitory effect
ACE2
  Kd: 6.64 µM
  kon: 309 M⁻¹ s⁻¹
  koff: 0.00205 s⁻¹

## C[C@@H]1O[C@@H](O[C@H]2[C@H](OC(=O)[C@]34CCC(C)(C)C[C@H]3C3=CC[C@@H]5[C@@]6(C)C[C@H](O)[C@H](O[C@@H]7O[C@H](CO)[C@@H](O)[C@H](O)[C@H]7O)C(CO)(CO)[C@@H]6CC[C@@]5(C)[C@]3(C)C[C@H]4O)OC[C@H](O)[C@@H]2O)[C@H](O)[C@H](O)[C@H]1O[C@@H]1OC[C@@H](O)[C@H](O)[C@H]1O [DPD, Deapio platycodin D]
HCoV-229E; 12.50 µM (MNTC), BEL-7402 cells, RT-qPCR
  antiviral activity against HCoV-229E: significant antiviral activity
HCoV-229E; Human coronavirus 229E, Bel-7402, read-out: IC50, HCoV-229E replication
  IC50: 3.3 µM
SARS-CoV-2-S pseudovirus
  selectivity index (SI), [CC50]/[IC50]: 25.73
  inhibition of attachment of SARS-CoV-2-S pseudovirus to ACE2-expressing HEK293T cells: significantly inhibited
  IC50: 1.38 ± 0.46 µM
S-RBD
  Kd: 379 µM
  kon: 103 M⁻¹ s⁻¹
SARS-CoV-2 3CL^pro [5]
  inhibition of SARS-CoV-2 3CL^pro: lack of inhibition
[7]; oral administration ref 60
  Tmax: under 1 h
[7]; particularly lung tissue ref 60
  elimination from tissues: slow elimination
BEL-7402 cells
  maximum non-toxic concentration (MNTC): 12.50 µM
hACE2-HEK293T cells; 5 µM
  cytotoxicity against hACE2-HEK293T cells: no cytotoxicity
hACE2-HEK293T cells; 50 µM, p < 0.001
  cytotoxicity against hACE2-HEK293T cells: had cytotoxicity
[6]
  CC50: 35.5 ± 1.77 µM
ACE2
  Kd: 358 µM
  kon: 54.6 M⁻¹ s⁻¹
  koff: 0.0196 s⁻¹
